These are literature values, as cited in patent publication US20010039262A1, “Methods and compositions for the treatment of cardiac indications” (priority 2000, published 2001).

One series deals with patients with severe HF. The following applies: spironolactone administered along with captopril and furosemide.
Series [1] concerns patients with stable Congestive Heart Failure (NYHA class II-IV).
Setting [2] is: heart failure patients treated with spironolactone.

As to `CC(=O)S[C@@H]1CC2=CC(=O)CC[C@]2(C)[C@H]2CC[C@@]3(C)[C@@H](CC[C@@]34CCC(=O)O4)[C@H]12` [spironolactone], the “reduction of morbidity and mortality” value in the series with patients with severe HF was 27%. Moreover, the morbidity result in series [1] (31 patients with stable CHF (NYHA class II-IV), spironolactone vs placebo in addition to diuretics and ACE inhibitor) is given as “lowered”. In series [1] (setting [2]), the “early morning rise in heart rate” value is given as “reduced”, the heart rate variability entry is listed as “improved” and the vascular collagen turnover result is recorded as “reduced”. Also, the “reduction in myocardial fibrosis activity” value in series [1] (spironolactone 50-100 mg/day in addition to diuretics and ACE inhibitor, 8 weeks of active therapy) was “approximately 20%”.
